Measurements published in ChEMBL document CHEMBL2417358, “Design, stereoselective synthesis, and biological evaluation of novel tri-cyclic compounds as inhibitor of apoptosis proteins (IAP) antagonists” (Bioorg Med Chem, 2013).

How the values were obtained:
[1] = system: MDA-MB-231; test: Growth inhibition of human MDA-MB-231 cells after 72 hrs by luminescence assay; format: functional; details: MDA-MB-231, 72 h
[2] = Metabolic stability in mouse liver microsomes assessed as compound remaining at 1 umol/L after 15 to 30 mins by LC/MS/MS analysis; format: ADME, Microsome; details: read-out: Stability
[3] = system: Mus musculus; test: Upregulation of TNFalpha mRNA level in human MDA-MB-231 cells expressing luciferase xenografted in po dosed mouse after 6 hrs by RT-PCR analysis; format: functional, organism-based
[4] = Metabolic stability in human liver microsomes assessed as compound remaining at 1 umol/L after 15 to 30 mins by LC/MS/MS analysis; format: ADME, Microsome; details: read-out: Stability

With `CN[C@@H](C)C(=O)N[C@H](C(=O)N1C[C@H]2C[C@@H]3C[C@@H]3N2C[C@H]1C(=O)N[C@@H]1CCOc2ccccc21)C1CCCCC1` as the compound, how does the GI50 [1] read?
The GI50 was 7.8 nM.

And the microsomal CLint at 1 µM [2]?
Its microsomal CLint at 1 µM is 96 µL/min/mg.

What about the Activity [3] of the same compound?
Its Activity is “Dose-dependent effect”.

And the microsomal CLint at 1 µM [4]?
Its microsomal CLint at 1 µM is 72 µL/min/mg.

Which GI50 [1] does the source give for `CN[C@@H](C)C(=O)N[C@H](C(=O)N1C[C@H]2C[C@H]3C[C@H]3N2C[C@H]1C(=O)N[C@@H]1CCOc2ccccc21)C1CCCCC1` here?
Its GI50 is 83 nM.

And the microsomal CLint at 1 µM [2]?
Its microsomal CLint at 1 µM is 45 µL/min/mg.

And the microsomal CLint at 1 µM [4]?
Its microsomal CLint at 1 µM is 39 µL/min/mg.

For `CN[C@@H](C)C(=O)N[C@H](C(=O)N1C[C@H]2CCCN2C[C@H]1C(=O)N[C@@H]1CCOc2ccccc21)C1CCCCC1`, which GI50 [1] is on record?
Its GI50 is 5.7 nM.
